The assay deals with T1, human recombinant HDAC6 (Homo sapiens, UniProt Q9UBN7).
T1 construct: purchased Calbiochem 382180
T1 sequence (Q9UBN7 1-1215): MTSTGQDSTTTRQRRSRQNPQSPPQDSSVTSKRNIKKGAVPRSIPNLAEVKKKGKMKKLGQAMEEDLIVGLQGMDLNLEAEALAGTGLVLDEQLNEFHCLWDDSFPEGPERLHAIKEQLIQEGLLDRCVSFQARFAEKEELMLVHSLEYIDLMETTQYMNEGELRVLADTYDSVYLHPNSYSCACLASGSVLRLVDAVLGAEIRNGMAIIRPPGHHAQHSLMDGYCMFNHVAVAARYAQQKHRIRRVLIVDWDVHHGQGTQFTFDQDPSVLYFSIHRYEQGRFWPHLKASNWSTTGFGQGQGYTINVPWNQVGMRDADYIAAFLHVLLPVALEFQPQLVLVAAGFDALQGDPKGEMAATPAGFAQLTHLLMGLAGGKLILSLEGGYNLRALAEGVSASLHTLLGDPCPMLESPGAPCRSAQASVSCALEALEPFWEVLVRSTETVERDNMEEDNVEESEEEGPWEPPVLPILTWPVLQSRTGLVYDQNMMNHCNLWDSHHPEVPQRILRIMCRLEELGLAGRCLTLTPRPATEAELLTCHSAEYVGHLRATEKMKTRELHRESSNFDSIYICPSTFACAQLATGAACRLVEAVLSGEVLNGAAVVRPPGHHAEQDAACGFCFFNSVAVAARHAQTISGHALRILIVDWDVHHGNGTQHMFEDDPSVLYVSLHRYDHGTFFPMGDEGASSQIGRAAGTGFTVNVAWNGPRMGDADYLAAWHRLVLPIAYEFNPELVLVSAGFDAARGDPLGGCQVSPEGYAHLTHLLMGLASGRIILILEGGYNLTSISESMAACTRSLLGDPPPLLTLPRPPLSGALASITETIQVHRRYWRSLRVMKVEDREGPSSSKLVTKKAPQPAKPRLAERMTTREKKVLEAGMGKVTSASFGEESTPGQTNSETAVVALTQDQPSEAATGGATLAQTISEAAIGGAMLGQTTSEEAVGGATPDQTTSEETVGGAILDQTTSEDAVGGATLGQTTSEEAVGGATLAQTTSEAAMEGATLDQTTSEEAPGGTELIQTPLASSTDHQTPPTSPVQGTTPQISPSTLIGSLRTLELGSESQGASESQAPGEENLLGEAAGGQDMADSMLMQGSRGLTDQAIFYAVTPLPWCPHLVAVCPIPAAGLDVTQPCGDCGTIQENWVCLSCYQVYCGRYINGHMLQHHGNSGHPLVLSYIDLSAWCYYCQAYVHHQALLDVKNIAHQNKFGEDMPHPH
Description: HDAC6 enzyme activity inhibition assay (HDAC Fluorimetric Drug Discovery Kit). The conditions noted are these: for HDAC6 selectivity (fold): HDAC1 vs HDAC6; for pIC50: same protocol as the HDAC1 enzyme activity test. In kind it is biochemical. On the procedure: In order to examine the HDAC6 selectivity of the compounds of formula I of the present invention by HDAC1 and HDAC6 enzymatic activity inhibition assays, an experiment was performed using a conventional substance as a control.
HDAC enzyme activity was measured using a HDAC Fluorimetric Drug Discovery Kit (BML-AK511, 516, Enzo Life Science). For the HDAC1 enzyme activity test, human recombinant HDAC1 (BML-SE456) was used as an enzyme source, and Fluor de Lys®-“SIRT1 (BNL-KI177) was used as a substrate. A 5-fold dilution of the compound was seeded into a 96-well plate, and then 0.3 μg of the enzyme and 10 μM of the substrate were added to each well of the plate and allowed to react at 30° C. for 60 minutes. Then, Fluor de Lys®-Developer II (BML-KI176) was added thereto and allowed to react for 30 minutes, after which the fluorescence value (Ex 360, Em 460) was measured using a multi-plate reader (Flexstation 3, Molecular Device). The HDAC6 enzyme was tested using human recombinant HDAC6 (382180) (Calbiochem) according to the same protocol as the HDAC1 enzyme activity test method. Based on the resulting values, each IC50 value was calculated using GraphPad Prism4.0 program.

SMILES strings stand for the structures. pIC50: −log10 of the molar value.

Consider `CS(=O)(=O)N(Cc1ccc(-c2nnc(C(F)(F)F)o2)cc1F)c1ccccc1C(F)(F)F` [Compound 11218, N-(2-fluoro-4-(5-(trifluoromethyl)-1,3,4-oxadiazol-2-yl)benzyl)-N-(2-(trifluoromethyl)phenyl)methanesulfonamide], for which the “HDAC6 selectivity (fold)” value stood at 429 fold and the negative-log IC50 (pIC50) – broadly, the negative decadic logarithm of the IC50, by convention in mol/L – is 6.63.
For the compound `CS(=O)(=O)N(Cc1ccc(-c2nnc(C(F)F)o2)cc1F)c1ccccc1C(F)(F)F` [Compound 11219, N-(4-(5-(difluoromethyl)-1,3,4-oxadiazol-2-yl)-2-fluorobenzyl)-N-(2-(trifluoromethyl)phenyl)methanesulfonamide], the “HDAC6 selectivity (fold)” value was 1064 fold and the pIC50 is 7.03.
Regarding `CS(=O)(=O)N(Cc1ccc(-c2nnc(C(F)F)o2)cc1F)c1ccc(C(F)(F)F)cc1` [Compound 11221, N-(4-(5-(difluoromethyl)-1,3,4-oxadiazol-2-yl)-2-fluorobenzyl)-N-(4-(trifluoromethyl)phenyl)methanesulfonamide], the “HDAC6 selectivity (fold)” value was 990 fold and the pIC50 was 7.00.
In the same order, the values of `CCCCN(Cc1ccc(-c2nnc(C(F)(F)F)o2)cc1)S(C)(=O)=O` [Compound 11222, N-butyl-N-(4-(5-(trifluoromethyl)-1,3,4-oxadiazol-2-yl)benzyl)methanesulfonamide] are 243 fold and 6.39.
In the same order, the values of `O=S(=O)(c1cccnc1)N(Cc1ccc(-c2nnc(C(F)F)o2)cc1F)c1cccc(F)c1` [Compound 11225, N-(4-(5-(difluoromethyl)-1,3,4-oxadiazol-2-yl)-2-fluorobenzyl)-N-(3-fluorophenyl)pyridine-3-sulfonamide] are 4167 fold and 7.62.
On to `CS(=O)(=O)N(Cc1ccc(-c2nnc(C(F)F)o2)cc1F)c1ccc2c(c1)OCO2` [Compound 11227, N-(benzo[d][1,3]dioxol-5-yl)-N-(4-(5-(difluoromethyl)-1,3,4-oxadiazol-2-yl)-2-fluorobenzyl)methanesulfonamide], for which the “HDAC6 selectivity (fold)” value came out at 4348 fold and the pIC50 is 7.64.
Take `O=S(=O)(C1CCCCC1)N(Cc1ccc(-c2nnc(C(F)F)o2)cc1F)c1ccccc1` [Compound 11229, N-(4-(5-(difluoromethyl)-1,3,4-oxadiazol-2-yl)-2-fluorobenzyl)-N-phenylcyclohexanesulfonamide]: the “HDAC6 selectivity (fold)” value is on record as 1176 fold and the pIC50 is 7.07.
For the compound `CCC(C)S(=O)(=O)N(Cc1ccc(-c2nnc(C(F)F)o2)cc1F)c1ccccc1` (stereo not drawn) [Compound 11230, N-(4-(5-(difluoromethyl)-1,3,4-oxadiazol-2-yl)-2-fluorobenzyl)-N-phenylbutane-2-sulfonamide], the “HDAC6 selectivity (fold)” value came to 3030 fold and the pIC50 was 7.48.
For `COC(=O)CS(=O)(=O)N(Cc1ccc(-c2nnc(C(F)F)o2)cc1F)c1ccccc1` [Compound 11231, methyl 2-(N-(4-(5-(difluoromethyl)-1,3,4-oxadiazol-2-yl)-2-fluorobenzyl)-N-phenylsulfamoyl)acetate], the “HDAC6 selectivity (fold)” value is reported as 4545 fold and the pIC50 was 7.66.
For the compound `Cc1ccccc1N(Cc1ccc(-c2nnc(C(F)(F)F)o2)cc1F)S(C)(=O)=O` [Compound 11248, N-(2-fluoro-4-(5-(trifluoromethyl)-1,3,4-oxadiazol-2-yl)benzyl)-N-(o-tolyl)methanesulfonamide], the “HDAC6 selectivity (fold)” value was 893 fold and the pIC50 is 6.95.
In the same order, the values of `Cc1ccccc1N(Cc1ccc(-c2nnc(C(F)F)o2)cc1F)S(C)(=O)=O` [Compound 11249, N-(4-(5-(difluoromethyl)-1,3,4-oxadiazol-2-yl)-2-fluorobenzyl)-N-(o-tolyl)methanesulfonamide] are 2703 fold and 7.43.
In the same order, the values of `COc1ccccc1N(Cc1ccc(-c2nnc(C(F)(F)F)o2)cc1F)S(C)(=O)=O` [Compound 11250, N-(2-fluoro-4-(5-(trifluoromethyl)-1,3,4-oxadiazol-2-yl)benzyl)-N-(2-methoxyphenyl)methanesulfonamide] are 1000 fold and 7.00.
With `COc1ccccc1N(Cc1ccc(-c2nnc(C(F)F)o2)cc1F)S(C)(=O)=O` [Compound 11251, N-(4-(5-(difluoromethyl)-1,3,4-oxadiazol-2-yl)-2-fluorobenzyl)-N-(2-methoxyphenyl)methanesulfonamide], the “HDAC6 selectivity (fold)” value is listed as 1563 fold and the pIC50 is 7.19.
On to `O=S(=O)(c1cccnc1)N(Cc1ccc(-c2nnc(C(F)F)o2)cc1F)c1ccccc1` [Compound 11252, N-(4-(5-(difluoromethyl)-1,3,4-oxadiazol-2-yl)-2-fluorobenzyl)-N-phenylpyridine-3-sulfonamide], for which the “HDAC6 selectivity (fold)” value turned out to be 2564 fold and the pIC50 is 7.41.
As for `O=S(=O)(c1cccnc1)N(Cc1ccc(-c2nnc(C(F)(F)F)o2)cc1F)c1cccc(C(F)(F)F)n1` [Compound 11253, N-(2-fluoro-4-(5-(trifluoromethyl)-1,3,4-oxadiazol-2-yl)benzyl)-N-(6-(trifluoromethyl)pyridin-2-yl)pyridine-3-sulfonamide], the “HDAC6 selectivity (fold)” value is 150 fold and the pIC50 is 6.18.
Regarding `CC(=O)c1cccc(N(Cc2ccc(-c3nnc(C(F)F)o3)cc2F)S(C)(=O)=O)c1` [Compound 11254, N-(3-acetylphenyl)-N-(4-(5-(difluoromethyl)-1,3,4-oxadiazol-2-yl)-2-fluorobenzyl)methanesulfonamide], the “HDAC6 selectivity (fold)” value was 3448 fold and the pIC50 was 7.54.
For `O=S1(=O)CCC(S(=O)(=O)N(Cc2ccc(-c3nnc(C(F)(F)F)o3)cc2F)c2cccc(F)c2)CC1` [Compound 11255, N-(2-fluoro-4-(5-(trifluoromethyl)-1,3,4-oxadiazol-2-yl)benzyl)-N-(3-fluorophenyl)tetrahydro-2H-thiopyran-4-sulfonamide 1,1-dioxide], the “HDAC6 selectivity (fold)” value turned out to be 2128 fold and the pIC50 was 7.33.
On to `O=S1(=O)CCC(S(=O)(=O)N(Cc2ccc(-c3nnc(C(F)F)o3)cc2F)c2cccc(F)c2)CC1` [Compound 11256, N-(4-(5-(difluoromethyl)-1,3,4-oxadiazol-2-yl)-2-fluorobenzyl)-N-(3-fluorophenyl)tetrahydro-2H-thiopyran-4-sulfonamide 1,1-dioxide], for which the “HDAC6 selectivity (fold)” value was 7692 fold and the pIC50 was 7.89.
As to `CS(=O)(=O)N(Cc1ccc(-c2nnc(C(F)(F)F)o2)cc1F)c1ccc(Cl)cc1` [Compound 11271, N-(4-chlorophenyl)-N-(2-fluoro-4-(5-(trifluoromethyl)-1,3,4-oxadiazol-2-yl)benzyl)methanesulfonamide], the “HDAC6 selectivity (fold)” value was found to be 775 fold and the pIC50 is 6.89.
As to `CS(=O)(=O)N(Cc1ccc(-c2nnc(C(F)(F)F)o2)cc1F)c1cncc(F)c1` [Compound 11272, N-(2-fluoro-4-(5-(trifluoromethyl)-1,3,4-oxadiazol-2-yl)benzyl)-N-(5-fluoropyridin-3-yl)methanesulfonamide], the “HDAC6 selectivity (fold)” value was determined as 1961 fold and the pIC50 is 7.29.
On to `CS(=O)(=O)N(Cc1ccc(-c2nnc(C(F)(F)F)o2)cc1F)c1ccccc1F` [Compound 11273, N-(2-fluoro-4-(5-(trifluoromethyl)-1,3,4-oxadiazol-2-yl)benzyl)-N-(2-fluorophenyl)methanesulfonamide], for which the “HDAC6 selectivity (fold)” value came to 1266 fold and the negative logarithm of the IC50 (pIC50) was 7.10.

Source of the values: patent US10538498B2, “1,3,4-oxadiazole sulfonamide derivative compounds as histone deacetylase 6 inhibitor, and the pharmaceutical composition comprising the same” (Chong Kun Dang Pharmaceutical Corp., priority 2015, dated 2020).
